Reference: ChEMBL document CHEMBL5230105, “Vitamin D and its analogs as anticancer and anti-inflammatory agents” (Eur J Med Chem, 2020)

Assay: Half life in mouse plasma
Assay type: ADME, cell-free

half-life: 18.3 min
SMILES: C[C@H](CC#CC(C)(C)O)[C@H]1CC[C@@H]2/C(=C/C=C3C[C@@H](O)C[C@H](O)C3)CCC[C@@]21C [INECALCITOL]
